Data: PubChem BioAssay AID179 (DTP/NCI, 2004)
“And” between values parts separate entries of the source, which are not always exact repeats. Equal entries are not always repeated. The source made the active and inactive calls.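 How the source made its calls: active means compounds giving half or more protection of infected cells from virus-caused growth loss, again on retest; inactive means the rest.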 *1 amine or outer side, *2 acyl side, *3 side chain or, on linkers, in order; H or OH if unused. Where a SMILES comes first, the peptide text is derived from it. CO = O=C([*:1])[*:2]

System: CEM cells HIV-1 protection, formazan growth assay
Assay: NCI AIDS Antiviral Assay
Conditions: for IC50: measured here: growth of uninfected CEM cells
Outline: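 Human CEM cells, uninfected and HIV-1-infected, received five drug concentrations, and growth was read by soluble formazan assay. Compounds giving at least 50% protection were retested; reproducible 100% protection defined confirmed active.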

SMILES | EC50 [µM] | IC50 | outcome
COC[C@H]1C(=O)NCC(=O)N2N=CCC[C@H]2C(=O)N(O)[C@H](C)C(=O)O[C@@H](C(C)C)[C@H](NC(=O)[C@@](C)(O)[C@]2(O)CC[C@@H](CC(C)C)[C@H](C)O2)C(=O)N2NCCC[C@@H]2C(=O)N1O | > 0.151 | 0.0417 µM | 
CC(C)NCC(O)c1ccc(OCc2ccccc2)c(OCc2ccccc2)c1-c1ccccc1 (stereo unspecified) | > 200 | 3.09 µM | 
O=C1c2ccccc2-c2cccc3ccc(Cc4ccc5ccccc5c4)c1c23 | > 5.13 | > 5.13 µM | 
Cc1nnc(N/N=C(/C(=O)C(C#N)c2ccccc2)C(C#N)c2ccccc2)n1N (stereo unspecified) | > 224 | 38.9 µM | 
O=c1c2ccccc2c2nc3ccccc3nc2n1C1CCCCC1 |  |  | inactive
N#CC1=C(N)Oc2c(ccc3cccnc23)C1c1ccccc1 (stereo unspecified) | > 120 | 1.7 µM | 
COc1cccc(CCNC(=O)Cc2ccccc2CCO)c1 | > 200 | > 200 µM | 
Cc1ccccc1Nc1cn(COCc2ccccc2)c(=O)[nH]c1=O | > 200 | 42.7 µM | 
CC(C)(C)OC(=O)NC(Cc1ccccc1)NC(=O)NC(=O)OCc1ccccc1 (stereo unspecified) | > 200 | 112 µM | 
C=C(C)C1CCC2(CO)C(O)CC3(C)C(CCC4C5(C)CCC(O)C(C)(C)C5CCC43C)C12 (stereo unspecified) | > 100 | 75.9 µM | 
[N-]=[N+]=Nc1ccccc1-[n+]1noc([O-])c1Br | > 457 | > 457 µM | 
Cn1c(N)c(/C=N/NC(=O)CC#N)c(=O)n(C)c1=O | > 200 | > 200 µM | 
O=c1c2cc([N+](=O)[O-])ccc2[nH]n1Cc1ccccc1Cl | > 200 | 41.7 µM | 
Cc1coc2c1C1OC(=O)C3(C/C=C\C(C)C2)OC13 (stereo unspecified) | > 72.4 | > 72.4 µM | 
Nc1ncnc2c1ncn2[C@@H]1C[C@H]1CO | > 200 | > 200 µM | 
O=S1(=O)c2ccccc2N(O)C2=NCCN21 | > 550 | 91.2 µM | 
c1ccc(CN(Cc2ccccn2)Cc2ccccn2)cc1 |  |  | inactive
CC(Nc1ccc(S(=O)(=O)N=C(N)N)cc1)c1c2ccccc2nc2ccccc12 (stereo unspecified) |  |  | inactive
CCN(CC)CCOC(=O)c1ccc(N)cc1 | > 200 | > 200 µM | 
O=C(OCn1ncc2ccc([N+](=O)[O-])cc21)c1ccc(Cl)c(Cl)c1 | > 200 | 129 µM | 
COC(=O)C1c2c(C)cc3n2C(C=CC3)C1C(=O)OC (stereo unspecified) | > 324 | 115 µM | 
Nc1ccc2ccccc2c1N=Nc1ccc(/C=C/c2ccc(N=Nc3c(N)ccc4ccccc34)cc2S(=O)(=O)O)c(S(=O)(=O)O)c1 | 63.1 | 115 µM | 

SMILES | EC50 [µM] | IC50 | outcome
N#Cc1cccc(C(Br)S(=O)(=O)c2ccccc2)c1 (stereo unspecified) | > 77.6 | 72.4 µM | 
OCC(O)C(O)C(O)c1nn[nH]n1 (stereo unspecified) |  |  | inactive
Cc1cc(NS(=O)(=O)c2ccc(N=Nc3c(N)n(C)c(=O)n(C)c3=O)cc2)nc(C)n1 | > 200 | > 200 µM | 
COC(=O)[C@H](Cc1ccccc1)NC(=O)N[C@@H](C)C(=O)N[C@H](C(=O)N[C@H](C=O)Cc1ccccc1)C(C)C ({OMe-Phe-CO}-Ala-Val-Phe-aldehyde) | > 200 | 4.79 µM | 
N#Cc1c(-c2ccccc2)cc(-c2ccccc2)n(C2OC(CO)C(O)C(O)C2O)c1=S (stereo unspecified) | > 200 | 15.1 µM and 26.9 µM | 
COc1ccc(N2C(=O)C3c4[nH]c5ccccc5c4C4CCCCCCCCCC4C3C2=O)cc1 (stereo unspecified) | > 200 | > 200 µM | 
CCOC(=O)C1C(c2ccc(Br)cc2)N(Cc2ccccc2)C(c2ccc(Br)cc2)C(C(=O)OC)S1(=O)=O (stereo unspecified) | > 2.19 | > 2.19 µM | 
COc1ccc(N=CN(C)C)c(C)c1 | > 200 | 3.98 µM | 
COc1ccc(/C=C/C(=O)c2c(-c3ccccc3)nn(C)c(=O)c2N2CCCCC2)cc1 | 15.8 | 19.1 µM | 
CCC12C=C(C(=O)OC)N3c4ccccc4C4CCN(CCC1)C2C43 (stereo unspecified) |  |  | inactive
O=S(Nc1ccccc1)c1cccc(Cl)c1 (stereo unspecified) |  |  | inactive
CN(C)CCN(C)CC(O)CO (stereo unspecified) |  |  | inactive
CC(C(N)=O)N(C)C(=O)c1cnc2ccccc2c1 (stereo unspecified) |  |  | inactive
O=C(O)c1cc2ccccc2oc1=O | > 1320 | > 1320 µM | 
O=C([O-])C(=O)[N-]CCC[N-]C(=O)C(=O)[N-]CCC[N-]C(=O)C(=O)[O-].[Cu+2].[Cu+2].[Na+] | > 200 | 17 µM | 
NC(=O)N/N=C/c1ccc(Cl)cc1 | > 132 | > 132 µM | 
CCCCC(/C=C\COC1CCCCO1)=C/C(=O)OCC (stereo unspecified) | > 126 | 77.6 µM | 
Cn1c(N)c(C(N)=O)[nH]c1=S | > 200 | > 200 µM | 
COc1ccc(-c2cc(=O)c3ccc(O)cc3o2)cc1 | > 83.2 | > 83.2 µM | 
Cn1c2cc(Cl)ccc2c2ccc3c(c21)C(=O)C=CC3=O | > 200 | 4.17 µM | 
N#CC(N)=Nc1ccccc1 | > 617 | 347 µM | 
C(=C/[PH+](c1ccccc1)c1ccccc1)/[PH+](c1ccccc1)c1ccccc1.C(=C/[PH+](c1ccccc1)c1ccccc1)/[PH+](c1ccccc1)c1ccccc1.C(=C/[PH+](c1ccccc1)c1ccccc1)/[PH+](c1ccccc1)c1ccccc1.[Pt] | > 5.25 | 3.24 µM | 

SMILES | EC50 [µM] | IC50 | outcome
O=C(NNc1nc(Cl)nc(Cl)n1)c1ccccc1 | > 200 | > 200 µM | 
C=CCN1/C(=C2\SC(=S)N(c3ccc(C)cc3)C2=O)Sc2c1nc[nH]c2=O | > 2.51 | > 2.51 µM | 
Cn1c2ccccc2c2ccc3c(c21)C(=O)c1ccc2c4ccccc4n(C)c2c1C3=O | > 200 | > 200 µM | 
O=C1c2c(/C=C/c3ccc(Cl)c(Cl)c3)nc3ccccc3c2C(=O)N1CCN1CCCCC1 | > 7.59 | > 7.59 µM | 
C/C(O)=C(/C=N\C(=S)Nc1ccc(S(=O)(=O)Nc2nccs2)cc1)C(=O)Nc1ccccc1C | > 200 | 30.2 µM | 
CCCCNCCCNCCCNC(=O)c1csc(-c2csc(CCNC(=O)C(NC(=O)C(C)C(O)C(C)NC(=O)C(NC(=O)c3nc(C(CC(N)=O)NCC(N)C(N)=O)nc(N)c3C)C(OC3OC(CO)C(O)C(O)C3OC3OC(CO)C(O)C(OC(N)=O)C3O)c3cnc[nH]3)C(C)O)n2)n1 (stereo unspecified) |  |  | inactive
c1ccc2c(c1)N[C@@H]1c3[nH]c4ccccc4c3CC[C@H]21 | > 200 | 24.5 µM | 
COc1ccc(NC(=O)CC(=O)N2N=C(c3ccccc3)C(N=Nc3ccc(S(=O)(=O)CCOS(=O)(=O)O)cc3)C2=O)cc1 (stereo unspecified) | > 200 | > 200 µM | 
Cc1cc(NS(=O)(=O)c2ccc(N=c3c4ccccc4n(-c4ccccc4)c4ccccc34)cc2)no1 |  |  | inactive
CN1C(=O)C(Cl)(C#N)C(c2ccccc2)N(C)C1c1ccccc1 (stereo unspecified) | > 200 | 8.71 µM | 
O=C(O)c1c([N+](=O)[O-])cc(C(F)(F)F)cc1[N+](=O)[O-] |  |  | inactive
c1ccc2c(c1)NC(SSC1Nc3ccccc3S1)S2 (stereo unspecified) | > 200 | > 200 µM | 
COC(=O)[C@H](Cc1c[nH]c2ccccc12)NP(=O)(O)OCC1C=CC(n2cc(C)c(=O)[nH]c2=O)O1 (stereo partly specified) | 28.2 | > 200 µM | 
Cn1cnc2nc[nH]c2c1=N | > 200 | > 200 µM | 
CCOC(=O)c1nn2c(C)nnc2s1 |  |  | inactive
COC1=CC(=O)C(O)=C(CC2(C)C(C)CCC3(C)C2CCCC3(C)C)C1=O (stereo unspecified) | > 95.5 | 6.46 µM | 
O=C(CCCCC[n+]1ccccc1)Sc1ccccc1C(=O)NCc1ccc2c(c1)OCO2 | > 34.7 | 5.37 µM | 
Cc1cn(CC2=NC3CCCCC3N2)c(=O)[nH]c1=O (stereo unspecified) | > 200 | > 200 µM | 
O=C(O)/C(Cl)=C(/Cl)C(=O)Nc1cccc(Cl)c1 |  |  | inactive
CCOC(=O)N1CCC2C(=C(C)C(C)C3=C2C(=O)c2ccccc2C3=O)C1 (stereo unspecified) | > 100 | > 100 µM | 
Clc1nnc(-c2ccccc2)s1 | > 200 | 87.1 µM | 
O=[N+]([O-])c1ccc(S(=O)(=O)N/N=C/C=C/c2ccccc2)cc1 | > 151 | > 151 µM | 

SMILES | EC50 [µM] | IC50 | outcome
CCOC(=O)c1c(C)n(C)c2c1nnc1ccccc12 | > 200 | 129 µM | 
CC(=O)N(C(C)=O)n1c(Cc2ccc(Cl)cc2)n[nH]c1=O | > 200 | > 200 µM | 
N#C[C@@]12CCCC(=O)[C@@H]1[C@H]1CCC[C@H]12 | > 200 | 77.6 µM | 
CN(C)c1nc(Cl)c2c(-c3ccccc3)c(-c3ccccc3)oc2n1 |  |  | inactive
CC(C)/C(Cl)=N\OC(=O)Nc1ccc(F)cc1 |  |  | inactive
COC(=O)c1ccc(OCc2ccc3oc(=O)c(-c4ccccc4)nc3c2)cc1 | > 1.41 | > 1.41 µM | 
O=S(Nc1ccccc1)c1ccc(Cl)c(Cl)c1 (stereo unspecified) | > 200 | > 200 µM | 
CCOC(=O)C1(C#N)C(=O)c2cc[n+](CC[n+]3ccc4c(c3)C(=O)C(C#N)(C(=O)OCC)C4=O)cc2C1=O (stereo unspecified) | > 200 | 107 µM | 
O=CC1CCCc2ccccc21 (stereo unspecified) | > 44.7 | > 44.7 µM | 
CC1(C)c2ccccc2C(=O)C12CCC(=O)CC2 | > 200 | > 200 µM | 
Cc1nc2sccn2c1C(=O)NNC(N)=S | > 372 | > 372 µM | 
O=c1[nH]nc(Cc2ccccc2)n1/N=C/c1ccccc1O | > 200 | 85.1 µM | 
CCCCc1ccc2[n+](c1)C(C(=O)OCC)=PC2 (stereo unspecified) | > 178 | 145 µM | 
CCOC(CNc1nn2c(C)nnc2s1)OCC | > 200 | > 200 µM | 
c1ccc2c(c1)nc1n2C2CCC(C2)N1 (stereo unspecified) | > 200 | > 200 µM | 
O=C1C=CC(=O)c2c1ccc1c3ccccc3n(-c3ccccc3)c21 | > 22.4 | 1.07 µM | 
O=C1[C@H]2ON(c3ccccc3)C(c3ccc(Cl)cc3)[C@H]2C(=O)N1c1ccc(Cc2ccc(N3C(=O)[C@@H]4ON(c5ccccc5)C(c5ccc(Cl)cc5)[C@@H]4C3=O)cc2)cc1 (stereo partly specified) | > 6.31 | > 6.31 µM | 
CN1CC=C(OP(=O)(NCc2ccccc2)N(CCCl)CCCl)CC1 (stereo unspecified) | > 200 | 135 µM | 
N#C/C(=C\c1ccc(Cl)cc1)c1nc2ccccc2c(=O)[nH]1 |  |  | inactive
O=C(Nc1ccc(Cl)c(Cl)c1)C(=O)C(C1OC(=O)c2ccccc21)[N+](=O)[O-] (stereo unspecified) | > 87.1 | > 87.1 µM | 
